Values joined by “and” are separate entries in the source; they are usually repeats but may differ in a detail not shown here. Identical values can stand only once. Like-named read-outs stand apart in the source and are kept apart here.
Assays:
[1] = target: VCB: PROTAC: SMARCA4^BD ternary complex (Homo sapiens, UniProt P40337+P51532); assay: SPR ternary complex measurement, VCB immobilised, 10 µM SMARCA4^BD present; format: binding; design: P51532, residues 1448–1569 with additional N-terminal SM residues; His6 (TEV site) (N, cleaved yes); GST (TEV site) (N, cleaved yes); made in house; host or cells: SMARCA4^BD: Escherichia coli BL21(DE3); conditions: for Kd: SPR; for alpha: cooperativity, SMARCA4, ratio of KD values measured in the same run
Experimental: (§1) SPR data were acquired on Biacore 8K or T200 instruments (Cytiva). Target proteins were immobilised at 25 °C on CM5 chips by amine coupling (EDC/NHS, Cytiva) in HBS-P+ running buffer (pH 7.4), containing 2 mM TCEP. […] The reference surface was subsequently deactivated using 1 M ethanolamine. […] Biotinylated VCB was prepared as previously described[27]: in brief, the complex was mixed 1:1 with EZ-Link NHS–PEG4–biotin (Thermo Scientific) and incubated at room temperature for 1 h. Unreacted NHS-biotin was removed using a PD-10 desalting column (Cytiva) into 20 mM HEPES, pH 7.5, 150 mM sodium chloride and 1 mM DTT. The reference surface was generated by deactivating the EDC/NHS-treated surface with 1 M ethanolamine. All interaction experiments were done at 6 °C in running buffer (20 mM TRIS, pH 8.3, 150 mM potassium chloride, 2 mM magnesium chloride, 2 mM TCEP, 0.005% TWEEN 20, 1% dimethyl sulfoxide). For ternary complex measurements, a sensor chip surface with VCB immobilised was used (preparation as described above). Experiments were run in dual-inject mode with 10 µM SMARCA present during the injection and dissociation phase. Sensorgrams from reference surfaces and blank injections were subtracted from the raw data prior to data analysis using Biacore Insight software. Affinity and binding kinetic parameters were determined by global fitting using the 1:1 interaction model with a term for mass-transport included.

[2] = target: T1, SMARCA2^BD (Homo sapiens, UniProt P51531); assay: SPR binding to immobilised SMARCA2 bromodomain
T1 construct: P51531-2, residues 1373-1493 with additional N-terminal SM residues; GST (TEV site) (N, cleaved yes); made in house; host or cells: Escherichia coli BL21(DE3)
Experimental: (§2) SMARCA4^BD was provided by the Structural Genomics Consortium (SGC), Toronto[32] and SMARCA2^BD and PRM1^BD5 were synthesised by GeneArt then subcloned into pDEST15 vectors (Invitrogen). The VCB complex was expressed and purified as described previously, with the modification that 0.3 mM IPTG was used for induction of expression. […] Both were stored in 20 mM 4-(2-hydroxyethyl)−1-piperazineethanesulfonic acid (HEPES), 150 mM sodium chloride and 1 mM tris(2-carboxyethyl)phosphine (TCEP) pH 7.5. SMARCA2^BD, SMARCA4^BD and PBRM1^BD5 were expressed in Escherichia coli BL21(DE3) as N-terminal GST fusion proteins with a TEV protease cleavage site. Expression and purification of these proteins has been described previously[32],[33]. Starter cultures were grown overnight at 37 °C in 10 mL of Luria-Bertani (LB) medium with ampicillin (100 μg/mL). The starter cultures were diluted (1:100) in Terrific Broth (TB) medium with ampicillin (100 μg/mL) and grown in a shaking incubator at 37 °C to an optical density (OD600) ~1 before the temperature was lowered for induction (to 23 °C for SMARCA2^BD or 18 °C for SMARCA4^BD and PRRM1^BD5). […] Cells were harvested by centrifugation and stored at −80 °C prior to purification. […] The Lysis buffers were as follows: for SMARCA2^BD: 50 mM HEPES, 500 mM sodium chloride, 5% glycerol, 5 mM dithiothreitol (DTT); for SMARCA4^BD: 25 mM HEPES, 0.3 M sodium chloride, 5% glycerol, 10 mM DTT, pH 7.5; for PBRM1^BD5: 25 mM HEPES, 300 mM sodium chloride, 5% glycerol, 10 mM DTT, pH 7.8; in each case supplemented with complete protease inhibitors (Roche). Affinity purification was performed using Glutathione Sepharose 4B (GE Healthcare) in batch mode or on-column. […] For SMARCA2^BD, prior to TEV protease cleavage the eluted GST-tagged BD was first dialysed into desalting buffer (20 mM HEPES, 250 mM sodium chloride, pH 7.0 + 0.5% glycerol). Where TEV cleavage was performed in solution, a second affinity (GST-trap) column purification step was carried out to remove the GST-tag and uncleaved GST-tagged protein. Proteins were further purified by SEC (HiLoad Superdex-75, 16/600) (GE Healthcare) and stored in Storage buffer (for SMARCA2^BD: 20 mM HEPES, 150 mM sodium chloride, pH 7.5; for SMARCA4^BD: 10 mM HEPES, 0.5 M NaCl, 5% glycerol, pH 7.5; for PBRM1^BD5: 20 mM HEPES, 300 mM NaCl, 5 mM DTT, pH 7.8). For AlphaScreen assays, eluted GST-tagged BDs were purified directly by SEC in the respective storage buffers without TEV cleavage. All chromatography purification steps were performed either at room temperature or 4 °C using an ÄKTA FPLC purification system (GE Healthcare) or a plastic Econo-Pac column (Bio-Rad).
as §1, with “software.” for “software. Affinity and binding kinetic parameters were determined by global fitting using the 1:1 interaction model with a term for mass-transport included.”

[3] = target: T2, VCB complex (Homo sapiens, UniProt P40337); assay: SPR binary binding to immobilised VCB complex
T2 construct: His6 (TEV site) (N, cleaved yes); made in house
Experimental: as §2
as §1, with “software.” for “software. Affinity and binding kinetic parameters were determined by global fitting using the 1:1 interaction model with a term for mass-transport included.”

[4] = ternary complex with SMARCA4BD, mean ± SD
[5] = SPR, SMARCA2BD, mean ± SD, read-out: SMARCA2 KD
[6] = SPR, individual replicates, read-out: SMARCA2 KD
[7] = binary binding to VCB, mean ± SD

T1 sequence (P51531 1373-1493 isoform P51531-2): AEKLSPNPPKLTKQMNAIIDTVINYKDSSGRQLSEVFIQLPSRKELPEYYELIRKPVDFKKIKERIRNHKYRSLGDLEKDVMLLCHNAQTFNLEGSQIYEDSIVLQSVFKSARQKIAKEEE
VCB: PROTAC: SMARCA4^BD ternary complex, sequence (P40337 54-213): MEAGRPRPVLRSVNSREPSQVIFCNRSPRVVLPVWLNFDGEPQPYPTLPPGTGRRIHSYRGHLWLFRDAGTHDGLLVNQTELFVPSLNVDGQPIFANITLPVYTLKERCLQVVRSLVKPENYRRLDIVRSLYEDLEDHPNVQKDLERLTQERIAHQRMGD
VCB: PROTAC: SMARCA4^BD ternary complex, sequence (Q15369 17-112 partner limits assumed): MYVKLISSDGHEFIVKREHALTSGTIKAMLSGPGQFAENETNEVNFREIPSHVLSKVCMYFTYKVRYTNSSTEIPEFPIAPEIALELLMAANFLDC
VCB: PROTAC: SMARCA4^BD ternary complex, sequence (Q15370 1-104 partner limits assumed): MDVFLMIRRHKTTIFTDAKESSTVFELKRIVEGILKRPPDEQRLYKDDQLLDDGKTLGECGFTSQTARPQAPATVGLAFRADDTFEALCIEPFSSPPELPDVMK
VCB: PROTAC: SMARCA4^BD ternary complex, sequence (P51532 1448-1569): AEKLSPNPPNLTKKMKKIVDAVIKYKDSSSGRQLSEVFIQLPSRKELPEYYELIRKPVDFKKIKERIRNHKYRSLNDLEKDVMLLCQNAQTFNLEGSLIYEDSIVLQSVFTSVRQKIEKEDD
T2 sequence (P40337 54-213): as the sequence (P40337 54-213) above
T2 sequence (Q15369 17-112 partner limits assumed): as the sequence (Q15369 17-112 partner limits assumed) above
T2 sequence (Q15370 1-104 partner limits assumed): as the sequence (Q15370 1-104 partner limits assumed) above

Structure (SMILES)	Kd [1, 4] [µM]	Kd ([1]; ternary, individual replicates)	alpha [1]	Kd [2, 5] [µM]	Kd [2, 6]	Kd [3, 7] [µM]	Kd ([3]; binary, individual replicates)	koff [2] [s⁻¹]	kon [2] [M⁻¹ s⁻¹]	Kd ([2]; read-out: SMARCA2^BD SPR KD) [µM]
Cc1ncsc1-c1ccc(CNC(=O)[C@@H]2C[C@@H](O)CN2C(=O)[C@@H](NC(=O)C2(F)CC2)C(C)(C)C)c(OCCCCN2CCC(c3ccc4c(c3)n(C3CCCC3)c3nc(=O)c5c(Br)cccc5n43)CC2)c1 [compound 23]	0.084 ± 0.001	0.0843 µM and 0.0827 µM and 0.085 µM	0.2	0.094 ± 0.011	0.102 µM and 0.0813 µM and 0.0983 µM	0.016 ± 0.008	0.0115 µM and 0.0281 µM and 0.0123 µM and 0.0109 µM	–	–	–
CN1CCN(c2nc(=O)c3c(Br)cccc3o2)CC1 [compound 15]	–	–	–	9 ± 0.526	8.91 µM and 9.57 µM and 8.53 µM	–	–	–	–	–
Cc1ncsc1-c1ccc([C@H](COC(C)(C)CN2CCC(c3ccc4c(c3)n(C3CCCC3)c3nc(=O)c5c(Br)cccc5n43)CC2)NC(=O)[C@@H]2C[C@@H](O)CN2C(=O)[C@@H](NC(=O)C2(F)CC2)C(C)(C)C)cc1 [compound 28]	0.073 ± 0.013	0.0634 µM and 0.0674 µM and 0.0869 µM	0.8	0.196 ± 0.003	0.199 µM and 0.193 µM and 0.195 µM	0.055 ± 0.029	0.0504 µM and 0.131 µM and 0.0471 µM and 0.0495 µM and 0.0396 µM and 0.0494 µM and 0.0398 µM and 0.0436 µM and 0.0449 µM	–	–	–
CN1CCC(c2ccc3c(c2)n(C2CCCC2)c2nc(=O)c4c(Br)cccc4n32)CC1 [compound 3]	–	–	–	0.046 ± 0.005	0.0722 µM and 0.083 µM and 0.0787 µM and 0.0507 µM and 0.0446 µM and 0.0415 µM	–	–	0.09 ± 0.01	1.98e+06 ± 130000	0.046
Cc1ncsc1-c1ccc([C@H](COC(C)CN2CCC(c3ccc4c(c3)n(C3CCCC3)c3nc(=O)c5c(Br)cccc5n43)CC2)NC(=O)[C@@H]2C[C@@H](O)CN2C(=O)[C@@H](NC(=O)C2(F)CC2)C(C)(C)C)cc1 (stereo partly shown) [compound 9]	0.18 ± 0.013	0.171 µM and 0.174 µM and 0.195 µM	0.2	0.263 ± 0.009	0.26 µM and 0.273 µM and 0.257 µM	0.034 ± 0.006	0.0399 µM and 0.0379 µM and 0.0304 µM and 0.0262 µM	–	–	–
CN1CCN(c2nc(=O)c3c(I)cccc3o2)CC1 [compound 16]	–	–	–	17.9 ± 0.917	18.1 µM and 16.9 µM and 18.7 µM	–	–	–	–	–
Cc1ncsc1-c1ccc([C@H](COC(C)CN2CCC(c3ccc4c(c3)n(C3CCCC3)c3nc(=O)c5c(Br)cccc5n43)CC2)NC(=O)[C@@H]2C[C@@H](O)CN2C(=O)[C@@H](NC(=O)C2(N(C)C)CC2)C(C)(C)C)cc1 (stereo partly shown) [compound 10]	0.172 ± 0.115	0.305 µM and 0.102 µM and 0.109 µM	0.7	0.222 ± 0.006	0.228 µM and 0.218 µM and 0.219 µM	0.124 ± 0.097	0.0767 µM and 0.269 µM and 0.0654 µM and 0.086 µM	–	–	–
Cc1ncsc1-c1ccc([C@H](CCC(C)(C)CCN2CCC(c3ccc4c(c3)n(C3CCCC3)c3nc(=O)c5c(Br)cccc5n43)CC2)NC(=O)[C@@H]2C[C@@H](O)CN2C(=O)[C@@H](NC(=O)C2(F)CC2)C(C)(C)C)cc1 [compound 30]	0.045 ± 0.006	0.0412 µM and 0.0418 µM and 0.0514 µM	0.6	0.325 ± 0.031	0.29 µM and 0.351 µM and 0.333 µM	0.029 ± 0.008	0.0383 µM and 0.0255 µM and 0.0326 µM and 0.021 µM	–	–	–
Cc1ncsc1-c1ccc([C@H](COCCCN2CCC(c3ccc4c(c3)n(C3CCCC3)c3nc(=O)c5c(Br)cccc5n43)CC2)NC(=O)[C@@H]2C[C@@H](O)CN2C(=O)[C@@H](NC(=O)C2(F)CC2)C(C)(C)C)cc1 [compound 27]	0.018 ± 0.001	0.0167 µM and 0.0175 µM and 0.0195 µM	0.7	0.217 ± 0.03	0.244 µM and 0.185 µM and 0.221 µM	0.012 ± 0.009	0.00851 µM and 0.0254 µM and 0.00656 µM and 0.009 µM	–	–	–
Cc1ncsc1-c1ccc([C@H](CC[C@@H](C)CCN2CCC(c3ccc4c(c3)n(C3CCCC3)c3nc(=O)c5c(Br)cccc5n43)CC2)NC(=O)[C@@H]2C[C@@H](O)CN2C(=O)[C@@H](NC(=O)C2(F)CC2)C(C)(C)C)cc1 [compound 29]	0.011 ± 0.001	11.5 nM (2×) and 9.84 nM	1.1	0.255 ± 0.042	0.304 µM and 0.227 µM and 0.235 µM	0.013 ± 0.007	0.0213 µM and 0.0182 µM and 0.00709 µM and 0.00827 µM and 0.00572 µM and 0.0148 µM	–	–	–
Cc1ncsc1-c1ccc(CNC(=O)[C@@H]2C[C@H](O)CN2C(=O)[C@@H](NC(=O)C2(F)CC2)C(C)(C)C)c(OCCN2CCC(c3ccc4c(c3)n(C3CCCC3)c3nc(=O)c5c(Br)cccc5n43)CC2)c1 [compound 19]	–	–	–	0.064 ± 0.004	0.0688 µM and 0.0629 µM and 0.0609 µM	–	–	–	–	–
Cc1ncsc1-c1ccc([C@H](CC[C@H](C)CCN2CCC(c3ccc4c(c3)n(C3CCCC3)c3nc(=O)c5c(Br)cccc5n43)CC2)NC(=O)[C@@H]2C[C@H](O)CN2C(=O)[C@@H](NC(=O)C2(F)CC2)C(C)(C)C)cc1 [compound 12]	–	–	–	0.214 ± 0.015	0.202 µM and 0.231 µM and 0.209 µM	0.629 ± 0.088	0.566 µM and 0.691 µM	–	–	–
Cc1ncsc1-c1ccc([C@H](COCCN2CCC(c3ccc4c(c3)n(C3CCCC3)c3nc(=O)c5c(Br)cccc5n43)CC2)NC(=O)[C@@H]2C[C@@H](O)CN2C(=O)[C@@H](NC(=O)C2(N(C)C)CC2)C(C)(C)C)cc1 [compound 26]	0.116 ± 0.016	0.105 µM and 0.109 µM and 0.135 µM	0.7	0.118 ± 0.005	0.119 µM and 0.123 µM and 0.113 µM	0.076 ± 0.046	0.0555 µM and 0.144 µM and 0.0501 µM and 0.0534 µM	–	–	–
Nc1cccc2c1c(=O)nc1n(C3CCCC3)c3ccccc3n21 [compound 2]	–	–	–	1.16 ± 0.421	0.826 µM and 0.632 µM and 0.916 µM and 1.49 µM and 1.42 µM and 1.67 µM	–	–	–	–	1.16
Cc1ncsc1-c1ccc(CNC(=O)[C@@H]2C[C@@H](O)CN2C(=O)[C@@H](NC(=O)C2(F)CC2)C(C)(C)C)c(OCCN2CCC(c3ccc4c(c3)n(C3CCCC3)c3nc(=O)c5c(Br)cccc5n43)CC2)c1 [compound 20]	0.067 ± 0.003	0.0677 µM and 0.0693 µM and 0.0637 µM	0.1	0.104 ± 0.006	0.103 µM and 0.0988 µM and 0.11 µM	0.009 ± 0.007	0.00664 µM and 0.0203 µM and 0.0051 µM and 0.00519 µM	–	–	–
CN1CCN(c2nc(=O)c3c(Cl)cccc3o2)CC1 [compound 13]	–	–	–	24.5 ± 2.17	26.5 µM and 24.9 µM and 22.2 µM	–	–	–	–	–
O=c1nc2n(C3CCCC3)c3ccccc3n2c2cccc(Br)c12 [compound 1]	–	–	–	1.06 ± 0.258	1.05 µM and 0.804 µM and 1.32 µM	–	–	–	–	–
